Columns and labels:
[1] = in vivo; cited from earlier work
[2] = system: critical size calvarial bone defects; conditions: 3D PLAGA scaffolds delivering FTY720; cited from earlier work
[3] = system: CD45+/CD11b+/Ly6Chigh/CX3CR1low inflammatory monocytes (IM); experiment: Transwell migration of sorted inflammatory monocytes after FTY720 pre-treatment; type: cell-based, mouse; conditions: FIG. 6B
Excerpt: (§1) CD45^+/CD11b^+/Ly6C^low/CX3CR1^high anti-inflammatory monocytes (AM) and CD45^+/CD11b^+/Ly6C^high/CX3CR1^low inflammatory monocytes (IM) (FIG. 6C) were sorted from mouse marrow. […] In vivo, in tissue from the murine dorsal skinfold window chamber, the recruitment of IMs to dorsal tissue was attenuated with local FTY720 application from PLAGA films (FIG. 6D). Cells that are CD45^+/CD11b^+/Ly6C^high/CX3CR1^low/CD105^+ and have a decreasing expression of Sca1 (a progenitor cell marker) are consistent with endothelial progenitor derived endothelial cells (EPC-ECs). […] Local FTY720 stimulation attenuates the infiltration of inflammatory cells and recruits regenerative stem cells. (See FIGS. 3-6).

dorsal microvasculature [4] = conditions: sustained release from 50:50 PLAGA films (1:200 wt/wt); cited from earlier work
dorsal microvasculature [5] = experiment: Murine dorsal skinfold window chamber, intravital microscopy of microvascular remodeling; type: in vivo, mouse; conditions: S1P3 selectively antagonized on marrow-derived cells (BM S1P3−/−); 3 days post-implantation; FIG. 8
Experimental: (§2) 1 mm poly(lactic-co-glycolic acid) PLAGA films loaded with S1P receptor compounds are placed within the window chamber as shown. Repeated measurements of the same vessel networks are recorded and quantified over a 7-day time course using intravital microscopy. (FIG. 3).

[6] = system: ischemic spinotrapezius muscle; experiment: Arterial ligation of spinotrapezius muscle with PLAGA film implantation, confocal microscopy; type: in vivo, mouse; conditions: FIG. 7
Excerpt: (§3) Backpacks were implanted with PLAGA films and collagenase was used to digest dorsal tissue directly around the implants after 3 days to create single cell suspensions. Flow cytometry was used to assess cellular content. A feeder artery to the spinotrapezius muscle was ligated, creating an ischemic environment, and confocal microscopy on whole-mounted tissue was used to assess CX3CR1 expression in the muscle (FIG. 5).

[7] = system: Lineage1−/Sca1+/c-kit+ (LSK) hematopoietic stem cells; experiment: Transwell migration of sorted LSK hematopoietic stem cells toward SDF-1 and S1P; type: cell-based, mouse; conditions: cells pre-treated with compound (15 nM for VPC01091, VPC01211)
Experimental: Whole bone marrow cells were harvested from C57Bl/6 mice tibiae. They were pre-labeled with antibodies against Lineage 1, Sca1, and c-kit and the LSK subset were sorted, serum starved, and plated at equal concentration after pre-treatment with FTY720. Migration toward media, SDF1, and S1P was calculated.
Hematopoietic stem cell migration was also studied (FIG. 17). Lineage1−/Sca1+/c-kit+ (LSK) hematopoietic stem cells were sorted and serum starved for two hours. Cells were pre-treated with 15 nM VPC01211 or not and plated for transwell migration assays toward plain media, SDF-1 or S1P.

[8] = system: CD45+/CD11b+/Ly6Clow/CX3CR1high anti-inflammatory monocytes (AM); experiment: Transwell migration of sorted anti-inflammatory monocytes after FTY720 pre-treatment; type: cell-based, mouse; conditions: FIG. 6A
Excerpt: as §1

dorsal tissue = experiment: Murine dorsal skinfold window chamber with PLAGA films, flow cytometry of dorsal tissue; type: in vivo, mouse; conditions: local application from PLAGA films
Experimental: as §2, §3

bone marrow cells = experiment: Transwell migration of bone marrow cells toward SDF-1; type: cell-based, rat; conditions: pre-treated 10 ng/ml 30 minutes
Experimental: Bone marrow cells were collected from the tibia of Sprague Daley rats (Charles River), scrum starved for 2 hours, and the cell suspension at 2×10^6 cells/ml was pre-treated with serum-free medium, or 10 ng/ml FTY720-P (Cayman) for 30 minutes and then were re-suspended in serum-free DMEM (Invitrogen). 100 μl of the pre-treated cell suspension was added to the top of 5 μm transwell inserts (Costar) in a 24-well plate. The bottom of the wells contained 600 μl of serum-free DMEM or 12.5 nM SDF-1 (ProspecBio). The cells were incubated at 37° C. for 4 hours, and then the number of cells at the top and the bottom of the transwells were counted using an automatic cell counter. The cells that migrated toward SDF-1 after pre-treatment with FTY720-P were collected from the bottom of the transwells and treated with monoclonal antibodies to CD45, CD11b and CD90 prior to flow analysis. Flow cytometry was performed according to standard procedures and was analyzed on a 9 color CyAn flow cytometer.

[9] = in the absence of a carrier protein; cited from earlier work
S1P1 receptor = S1P1 receptor (Homo sapiens, UniProt P21453); conditions: cited from earlier work
S1P3 receptor = S1P3 receptor (Homo sapiens, UniProt Q99500); conditions: cited from earlier work
donor (GFP+) cells = experiment: Bone marrow transplant after lethal irradiation with equal number of mobilized cells; conditions: two-week chimerism after competitive BMT with equal numbers of mobilized cells; FIG. 10D
Experimental: WT mice were irradiated & reconstituted with mobilized peripheral blood cells from GFP+ mice. After varying amounts of time, blood was collected via the retro-orbital sinus and bone marrow was harvested to assess chimerism over time.
100 μL blood was plated on methocult stem cell differentiation medium and after 6 days colony forming units were quantified. […] Cells tested included—Host cells, PB donor cells and BM donor cells were tested. Treatments included—AMD cells, A+V cells, AMD Sca1+, A+V Sca1+, AMD CD45+, A+V CD45+, AMD CD11b+, and A+V CD11b+.

5 mm cranial defects = experiment: Rat cranial critical size bone defect, microCT and flow cytometry; type: in vivo
Experimental: 5 mm cranial defects were made in 36 nine weeks old Sprague Daley rats, which were divided into 4 groups (n=9). The rats were treated with a systemic dose of 1 mpk VPC01091, FTY720 coated semi-circular allograft, FTY720 coated semi-circular allograft+a systemic dose of 1 mpk VPC01091 or left untreated. VPC01091 was given the day after surgery and 3 weeks post-surgery. Hemavet (Drew Scientifics) was used to measure the concentrations of blood cells at days 0, week 1 and week 2 (n=6) (data not shown). The amount of bone regeneration was measured bi-weekly with microCT imaging (n=3-9). Flow cytometry was performed according to standard procedures on the tissue harvested from the defect sites at week 3 (n=3), and from peripheral blood at week 6 (n=3). Monoclonal antibodies (Invitrogen, Abeam) for rat CD45, CD11b, CD54, CD90 were used in both cases. Mason's Trichrome and H&E staining were done for done for all groups (n=3).

[10] = system: whole BMCs on FBMD-1 stromal cells; experiment: Cobblestone area-forming cell assay; type: cell-based, mouse; conditions: BMCs pre-treated 30 minutes; FIG. 19
Excerpt: Ordinate—% Positive Wells.

smooth muscle = conditions: daily injections; cited from earlier work
[11] = PLAGA film, ligated feeder artery

Sequence of S1P1 receptor (P21453 whole entry): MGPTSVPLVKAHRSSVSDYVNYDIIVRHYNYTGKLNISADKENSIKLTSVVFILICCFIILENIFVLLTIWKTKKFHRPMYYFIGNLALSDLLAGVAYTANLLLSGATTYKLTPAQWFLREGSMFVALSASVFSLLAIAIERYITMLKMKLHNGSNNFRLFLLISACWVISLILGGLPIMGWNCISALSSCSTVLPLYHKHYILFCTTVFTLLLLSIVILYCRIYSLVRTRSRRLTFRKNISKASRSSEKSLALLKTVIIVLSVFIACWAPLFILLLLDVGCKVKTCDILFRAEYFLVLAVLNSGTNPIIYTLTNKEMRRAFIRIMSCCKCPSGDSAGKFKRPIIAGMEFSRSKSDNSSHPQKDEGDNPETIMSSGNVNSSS
Sequence of S1P3 receptor (Q99500 whole entry): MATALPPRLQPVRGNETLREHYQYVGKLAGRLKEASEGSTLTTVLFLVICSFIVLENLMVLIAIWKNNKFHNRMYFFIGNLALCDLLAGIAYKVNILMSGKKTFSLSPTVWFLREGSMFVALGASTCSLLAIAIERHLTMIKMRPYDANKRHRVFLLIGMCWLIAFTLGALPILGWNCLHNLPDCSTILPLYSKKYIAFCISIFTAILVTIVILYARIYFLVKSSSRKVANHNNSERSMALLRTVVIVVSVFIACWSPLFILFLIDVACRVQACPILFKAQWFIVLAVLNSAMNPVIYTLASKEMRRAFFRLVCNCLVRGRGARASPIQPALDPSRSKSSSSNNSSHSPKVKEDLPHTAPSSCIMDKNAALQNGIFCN

CCCCCCCCc1ccc(CCC(N)(CO)CO)cc1 [FTY720, 2-amino-2-[2-(4-octylphenyl)ethyl]propane 1,3-diol]
half-life [1]: approximately 7 days
osseous tissue ingrowth [2]: significantly increases
proportion of mature smooth muscle cell-invested microvessels within the bony defect [2]: significantly increases
migration of IMs towards S1P [3]: decreased
migration of IMs towards SDF-1 [3]: decreased
arteriole formation and enlargement (dorsal microvasculature [4]): promotes formation of new arterioles and structural enlargement of existing arterioles
FTY720-induced microvascular remodeling (dorsal microvasculature [5]): impaired
recruitment of vessel-associated CX3CR1+ cells ([6]; CX3CR1-eGFP mice): recruitment of vessel-associated CX3CR1+ cells
remodeling in ischemic muscle [6, 11]: induces remodeling in ischemic muscle
tortuosity of vessels [6, 11]: promotes tortuosity of vessels
HSC migration / homing toward S1P [7]: abolishes
HSC migration / homing toward SDF-1 [7]: improves
migration of AMs towards SDF-1 [8]: increased
EPC-ECs in dorsal tissue (dorsal tissue): increased
recruitment of IMs to dorsal tissue (dorsal tissue; FIG. 6D): attenuated

CCCCCCCCc1ccc(CC[C@](N)(CO)COP(=O)(O)O)cc1 [FTY720-P]
total number of cells migrating toward SDF-1 (bone marrow cells; 12.5 nM SDF-1, 4 hours, FIG. 11E): significantly increased
percentage of CD90+; CD45−/CD11b− cells migrating toward SDF-1 (bone marrow cells; FIG. 11F): higher percentage

CCCCCCCCCCCCC/C=C/[C@@H](O)[C@@H](N)COP(=O)(O)O [S1P, Sphingosine 1-phosphate]
half-life in blood [1]: less than 1 hour
solubility in aqueous solutions [9]: insoluble

CCCCCCCCc1ccc(C2CCC(N)(CO)C2)cc1 (stereo not shown) [VPC01091]
activity at S1P1 receptor (S1P1 receptor): agonist
activity at S1P3 receptor (S1P3 receptor): antagonist
engraftment and repopulation efficiency in vivo (donor (GFP+) cells): does not impair
bone regeneration compared to the empty defect controls (5 mm cranial defects; systemic 1 mpk, day after surgery and 3 weeks post-surgery, microCT, FIG. 11): substantial bi-weekly increase
percentage of CD54 and CD90 positive cells in the defect region (5 mm cranial defects; week 3, FIG. 12a): increase
percentage of CD54 and CD90 positive cells in the blood (5 mm cranial defects; week 6, FIG. 12b): increase
HSC migration / homing toward S1P [7]: sensitized
HSC migration / homing toward SDF-1 [7]: desensitized

CCCCCCCCc1ccc(C2CCC(N)(COP(=O)(O)O)C2)cc1 (stereo not shown) [VPC01211]
adhesion / engraftment on bone marrow stromal cell layer [10]: less engraftment than AMD3100
HSC migration / homing toward S1P [7]: did not affect
HSC migration / homing toward SDF-1 [7]: abrogated

CCCCCCCCc1cccc(NC(=O)[C@H](N)CCP(=O)(O)O)c1 [VPC44116]
smooth muscle proliferation and migration (smooth muscle): significantly decreased

— patent publication US9682078B2, “Compositions and methods for tissue engineering and cell based therapies” (University of Virginia Patent Foundation, priority 2011, dated 2017)
